# Reference: US20240199587A1, “HETEROCYCLIC COMPOUNDS” (Hoffmann-La Roche Inc., priority 2021, published 2024)
# Target: T1, MAGL (Homo sapiens, UniProt Q99685)
# T1 sequence (Q99685 1-303): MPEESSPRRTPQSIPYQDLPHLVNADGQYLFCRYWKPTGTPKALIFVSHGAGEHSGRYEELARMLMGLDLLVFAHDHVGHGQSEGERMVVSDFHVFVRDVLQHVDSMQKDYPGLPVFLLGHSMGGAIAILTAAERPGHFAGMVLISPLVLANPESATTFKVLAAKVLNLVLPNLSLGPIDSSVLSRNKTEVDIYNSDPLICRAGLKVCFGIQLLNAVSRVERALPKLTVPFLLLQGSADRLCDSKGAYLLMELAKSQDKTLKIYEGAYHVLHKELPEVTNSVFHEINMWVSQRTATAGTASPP
# Assay: 2-AG assay (MAGL inhibitory activity, hydrolysis of 2-arachidonoylglycerol to arachidonic acid followed by mass spectrometry)
# Format: biochemical
# Details: 8 μM 2-arachidonoylglycerol, 15 min pre-incubation, 30 min incubation at RT, RapidFire MS readout
# Description: Compounds of formula (I) were profiled for MAGL inhibitory activity by determining the enzymatic activity by following the hydrolysis of the natural substrate 2-arachidonoylglycerol (2-AG) resulting in arachidonic acid, which can be followed by mass spectrometry. This assay is hereinafter abbreviated “2-AG assay”.
# Compounds of formula (I) were profiled for MAGL inhibitory activity by determining the enzymatic activity by following the hydrolysis of the natural substrate 2-arachidonoylglycerol (2-AG) resulting in arachidonic acid, which can be followed by mass spectrometry. This assay is hereinafter abbreviated “2-AG assay”. The 2-AG assay was carried out in 384 well polypropylene assay plates. […] Compound dilutions were added to MAGL protein in assay buffer (50 mM TRIS, 1 mM EDTA, 0.01% (v/v) Tween-20, 2.5% (v/v) DMSO). After shaking, the plate was incubated for 15 min at RT. To start the reaction, 2-arachidonoylglycerol in assay buffer was added. The final concentrations in the assay was […] for MAGL protein and 8 μM 2-arachidonoylglyerol. After shaking and 30 min incubation at RT, the reaction was quenched by the addition of two assay volumes of acetonitrile containing 4 μM of d8-arachidonic acid. The amount of arachidonic acid formed was traced by an online SPE system (Agilent Rapidfire) coupled to a triple quadrupole mass spectrometer. A C18 SPE cartridge (Agilent G9205A) was used in an acetonitrile/water liquid setup. The mass spectrometer was operated in negative electrospray mode following the mass transitions 303.1→259.1 for arachidonic acid and 311.1→267.0 for d8-arachidonic acid. The activity of the compounds was calculated based on the ratio of intensities [arachidonic acid/d8-arachidonic acid].
row,SMILES,IC50 [nM]
1,"CC(C)(C)c1nc(-c2ccc(C(=O)N3CC4(CC(n5ccc(C6(C)CC6)n5)C4)C3)cc2)no1 [Example 9, [4-(5-tert-butyl-1,2,4-oxadiazol-3-yl)phenyl]-[6-[3-(1-methylcyclopropyl)pyrazol-1-yl]-2-azaspiro[3.3]heptan-2-yl]methanone]",613
2,"COc1cc(C(F)(F)F)ccc1CNC1CN(C(=O)N2CC3(CC(c4ccc(C(F)(F)F)nc4)C3)C2)C1 [Example 518, [3-[[2-methoxy-4-(trifluoromethyl)phenyl]methylamino]azetidin-1-yl]-[6-[6-(trifluoromethyl)-3-pyridyl]-2-azaspiro[3.3]heptan-2-yl]methanone]",610
3,"CS(=O)(=O)c1cc(Cl)ccc1-c1ccc(C2CN(C(=O)N3CC4(CC(c5ccc(C(F)(F)F)nc5)C4)C3)C2)cn1 [Example 386, [3-[6-(4-chloro-2-methylsulfonyl-phenyl)-3-pyridyl]azetidin-1-yl]-[6-[6-(trifluoromethyl)-3-pyridyl]-2-azaspiro[3.3]heptan-2-yl]methanone]",142
4,"O=C(N1C[C@H]2C[C@H](Oc3ccc(OC(F)(F)F)c(F)c3)C[C@H]2C1)N1CC2(CC(n3cnc(C4CC4)n3)C2)C1 [Example 135, [6-(3-cyclopropyl-1,2,4-triazol-1-yl)-2-azaspiro[3.3]heptan-2-yl]-[rac-(3aS,6aR)-5-[3-fluoro-4-(trifluoromethoxy)phenoxy]-3,3a,4,5,6,6a-hexahydro-1H-cyclopenta[c]pyrrol-2-yl]methanone]",3.1
5,"O=C(N1CC2(CC(n3cnc(C4CC4)n3)C2)C1)N1CC2(C1)CN(S(=O)(=O)N1CCOCC1)C2 [Example 318, [6-(3-cyclopropyl-1,2,4-triazol-1-yl)-2-azaspiro[3.3]heptan-2-yl]-(2-morpholinosulfonyl-2,6-diazaspiro[3.3]heptan-6-yl)methanone]",291
6,"CC(C)(C(=O)O)c1cccc(OC2CN(C(=O)N3CC4(CC(n5cnc(C6CC6)n5)C4)C3)C2)c1 [Example 279, 2-[3-[1-[6-(3-cyclopropyl-1,2,4-triazol-1-yl)-2-azaspiro[3.3]heptane-2-carbonyl]azetidin-3-yl]oxyphenyl]-2-methyl-propanoic acid]",38
7,"CC(C)(C)c1nc(-c2ccc(C(=O)N3CC4(CC(n5cc(Cl)cn5)C4)C3)cc2)no1 [Example 6, [4-(5-tert-butyl-1,2,4-oxadiazol-3-yl)phenyl]-[6-(4-chloropyrazol-1-yl)-2-azaspiro[3.3]heptan-2-yl]methanone]",191
8,"CC(C)(C)c1nc(-c2ccc(C(=O)N3CC4(CC(n5ccc(C#N)n5)C4)C3)cc2)no1 [Example 8, 1-[2-[4-(5-tert-butyl-1,2,4-oxadiazol-3-yl)benzoyl]-2-azaspiro[3.3]heptan-6-yl]pyrazole-3-carbonitrile]",485
9,"O=C(N1CC(C#Cc2ccc(OC(F)F)cc2)C1)N1CC2(CC(n3cnc(C4CC4)n3)C2)C1 [Example 92, [6-(3-cyclopropyl-1,2,4-triazol-1-yl)-2-azaspiro[3.3]heptan-2-yl]-[3-[2-[4-(difluoromethoxy)phenyl]ethynyl]azetidin-1-yl]methanone]",11.7
10,"COc1cnn(C2CC3(C2)CN(C(=O)c2ccc(-c4noc(C(C)(C)C)n4)cc2)C3)c1 [Example 11, [4-(5-tert-butyl-1,2,4-oxadiazol-3-yl)phenyl]-[6-(4-methoxypyrazol-1-yl)-2-azaspiro[3.3]heptan-2-yl]methanone]",1290
11,"O=C(N1CCC([C@H](c2ccc(F)cc2)c2nc(C3CC3)no2)CC1)N1CC2(CC(n3cnc(C4CC4)n3)C2)C1 [Example 197, [4-[(R)-(3-cyclopropyl-1,2,4-oxadiazol-5-yl)-(4-fluorophenyl)methyl]-1-piperidyl]-[6-(3-cyclopropyl-1,2,4-triazol-1-yl)-2-azaspiro[3.3]heptan-2-yl]methanone]",0.4

# Further lines, results first:
row,IC50 [nM],SMILES
1,0.9,"N#Cc1cc(CC2CC3(C2)CN(C(=O)N2CC4(CC(n5cnc(C6(O)CC6)n5)C4)C2)C3)cc(C(F)(F)F)c1 [Example 370, 3-[[2-[6-[3-(1-hydroxycyclopropyl)-1,2,4-triazol-1-yl]-2-azaspiro[3.3]heptane-2-carbonyl]-2-azaspiro[3.3]heptan-6-yl]methyl]-5-(trifluoromethyl) benzonitrile]"
2,3.17,"O=C(N1CC2(CC(CNC3(C(F)(F)F)COC3)C2)C1)N1CC2(CC(n3cnc(C4CC4)n3)C2)C1 [Example 465, [6-(3-cyclopropyl-1,2,4-triazol-1-yl)-2-azaspiro[3.3]heptan-2-yl]-[6-[[[3-(trifluoromethyl)oxetan-3-yl]amino]methyl]-2-azaspiro[3.3]heptan-2-yl]methanone]"
3,2.5,"O=C(N1CC2(CC(Oc3ccc(OC(F)F)nc3)C2)C1)N1CC2(CC(n3cnc(C4CC4)n3)C2)C1 [Example 56, (6-(3-cyclopropyl-1H-1,2,4-triazol-1-yl)-2-azaspiro[3.3]heptan-2-yl)(6-((6-(difluoromethoxy)pyridin-3-yl)oxy)-2-azaspiro[3.3]heptan-2-yl)methanone]"
4,16.1,"O=C(N1CC(c2ccc(C3(c4nnn[nH]4)CC3)cc2)C1)N1CC2(CC(n3cnc(C4CC4)n3)C2)C1 [Example 252, [6-(3-cyclopropyl-1,2,4-triazol-1-yl)-2-azaspiro[3.3]heptan-2-yl]-[3-[4-[1-(1H-tetrazol-5-yl)cyclopropyl]phenyl]azetidin-1-yl]methanone]"
5,12.2,"O=C(N1CC(CNS(=O)(=O)c2cccc(C(F)(F)F)c2)C1)N1CC2(CC(n3cnc(C4CC4)n3)C2)C1 [Example 246, N-[[1-[6-(3-cyclopropyl-1,2,4-triazol-1-yl)-2-azaspiro[3.3]heptane-2-carbonyl]azetidin-3-yl]methyl]-3-(trifluoromethyl)benzenesul fonamide]"
6,365,"NC(=O)c1ccccc1S(=O)(=O)N1CC2(CN(C(=O)N3CC4(CC(n5cnc(C6CC6)n5)C4)C3)C2)C1 [Example 323, 2-[[6-[6-(3-cyclopropyl-1,2,4-triazol-1-yl)-2-azaspiro[3.3]heptane-2-carbonyl]-2,6-diazaspiro[3.3]heptan-2-yl]sulfonyl]benzamide]"
7,2,"O=C(N1CC2(CC(Cc3ccc(F)cn3)C2)C1)N1CC2(CC(n3cnc(C4CC4)n3)C2)C1 [Example 217, [6-(3-cyclopropyl-1,2,4-triazol-1-yl)-2-azaspiro[3.3]heptan-2-yl]-[6-[(5-fluoro-2-pyridyl)methyl]-2-azaspiro[3.3]heptan-2-yl]methanone]"
8,0.6,"O=C(N1CC(c2ccc(OC(F)(F)F)cc2Cl)C1)N1CC2(CC(n3cnc(C4CC4)n3)C2)C1 [Example 84, [3-[2-chloro-4-(trifluoromethoxy)phenyl]azetidin-1-yl]−[6-(3-cyclopropyl-1,2,4-triazol-1-yl)-2-azaspiro[3.3]heptan-2-yl]methanone]"
9,3.6,"O=C(N1CC2(CC(n3cnc(C4CC4)n3)C2)C1)N1CC2(C1)CN(S(=O)(=O)c1cc(F)cc(C(F)(F)F)c1)C2 [Example 226, [6-(3-cyclopropyl-1,2,4-triazol-1-yl)-2-azaspiro[3.3]heptan-2-yl]-[2-[3-fluoro-5-(trifluoromethyl)phenyl]sulfonyl-2,6-diazaspiro[3.3]heptan-6-yl]methanone]"
10,41.9,"CS(=O)(=O)c1cc(F)ccc1O[C@H]1C[C@@H]2CN(C(=O)N3CC4(CC(n5cnc(C6CC6)n5)C4)C3)C[C@@H]2C1 [Example 123, [6-(3-cyclopropyl-1,2,4-triazol-1-yl)-2-azaspiro[3.3]heptan-2-yl]-[rac-(3aS,6aR)-5-(4-fluoro-2-methylsulfonyl-phenoxy)-3,3a,4,5,6,6a-hexahydro-1H-cyclopenta[c]pyrrol-2-yl]methanone]"
11,59.4,"N#Cc1cccc(S(=O)(=O)N2CC3(CN(C(=O)N4CC5(CC(n6cnc(C7CC7)n6)C5)C4)C3)C2)c1 [Example 287, 3-[[6-[6-(3-cyclopropyl-1,2,4-triazol-1-yl)-2-azaspiro[3.3]heptane-2-carbonyl]-2,6-diazaspiro[3.3]heptan-2-yl]sulfonyl]benzonitrile]"
12,2.5,"O=C(N1CC2(CC(Oc3cc(C(F)(F)F)ncn3)C2)C1)N1CC2(CC(n3cnc(C4CC4)n3)C2)C1 [Example 57, [6-(3-cyclopropyl-1,2,4-triazol-1-yl)-2-azaspiro[3.3]heptan-2-yl]-[6-[6-(trifluoromethyl)pyrimidin-4-yl]oxy-2-azaspiro[3.3]heptan-2-yl]methanone]"
13,30.7,"O=C(N1CC2(CC(Nc3ccc(C(F)(F)F)nn3)C2)C1)N1CC2(CC(n3cnc(C4CC4)n3)C2)C1 [Example 267, [6-(3-cyclopropyl-1,2,4-triazol-1-yl)-2-azaspiro[3.3]heptan-2-yl]-[6-[[6-(trifluoromethyl)pyridazin-3-yl]amino]-2-azaspiro[3.3]heptan-2-yl]methanone]"
